Results as given in patent US8633179B2, “Synergistic interaction of NOTCH-1 inhibitors with glucocorticoids” (priority 2007, dated 2014).
Where two headings read alike, the source gives them in different places.

Tests used:
CUTLL1 cells = assay: Cell viability (MTT/colorimetric proliferation) assay; format: cell-based, human; conditions: for effect of γ-secretase inhibition on the apoptotic response triggered by the drug: CUTLL1, 100 nM CompE or vehicle, increasing drug concentrations
Protocol: FIG. 1. GSIs reverse glucocorticoid resistance in T-ALL cells. (a-c). […] Statistical significance was assessed with Student's t-test.
FIG. 7. Analysis of the effects of GSI treatment in chemotherapy response. Cell viability analysis in the CUTLL1 cells treated with 100 nM CompE or vehicle only in presence of increasing concentrations of etoposide, methotrexate, L-asparaginase and vincristine. Cell viability was analyzed by an MTT assay and cytotoxicity data was represented as percentage of viable cells compared with non-treated controls. Data are means±s.d. of triplicate experiments.
Proliferation and cell size assays.

KOPTK1 cells = assay: Cell viability assay; format: cell-based, human
Protocol: (§1) FIG. 1. […] (a-c). […] (e) Percentage of apoptotic cells (annexinV positive/PI negative) in CUTLL1 (72 hours), KOPTK1 (48 hours) and TALL1 cells (72 hours) treated with DMSO (control), CompE (100 nM), dexamethasone (1 μM) and dexamethasone (1 μM) plus CompE (100 nM). […] Data in (a-f) are means±standard deviation (s.d.) of triplicate experiments. Statistical significance was assessed with Student's t-test.
(§2) Proliferation and cell size assays. Cell growth ratios were determined by a colorimetric assay using the Cell Proliferation Kit I (MU) (Roche) in cell lines treated with different antileukemic drugs in the presence or absence of CompE (100 nM). The range of concentrations used in these experiments was: dexamethasone (10^−10 to […]), etoposide (10^−10 to 10^−4 M), methotrexate (10^−10 to 10^−4 M), L-Asparaginase (10^−8 to 10^−2 g/l) and vincristine (10^−12 to 10^−6 M).

TALL1 cells = assay: Cell viability assay; format: cell-based, human
Protocol: as §1, §2

PARP cleavage = assay: Western blot analysis of PARP cleavage in CUTLL1 cells; format: cell-based, human
Protocol: as §1
Western blot analysis. Antibodies against glucocorticoid receptor (E-20, Santa Cruz Biotechnology), BIM (Cell Signaling Technologies); BMF (BD Bioscience) and α-actin (C-11, Santa Cruz Biotechnology) were used in immunoblot assays following manufacturer instructions.

NOTCH1 signaling = NOTCH1 signaling in CUTLL1 cells; format: cell-based, human; conditions: CUTLL1, CompE 72 hours
CUTLL1 T-ALL xenografts = assay: Subcutaneous xenograft model with in vivo bioimaging; parameters: species or system NOD/SCID mice; conditions: 4 days of daily i.p. treatment; dexamethasone 15 mg/kg, DBZ 10 μmol/kg
Protocol: Subcutaneous xenograft model and in vivo imaging. […] For subcutaneous xenograft experiments, 2.5×10^6 T-ALL cells embedded in matrigel (BD Biosciences) were injected in the flank. After 1 week, mice were segregated into treatment groups (6 animals per group) and treated daily with vehicle (DMSO), dexamethasone (15 mg/kg), DBZ (10 μmol/kg) or dexamethasone (15 mg/kg) plus DBZ (10 μmol/kg) by intraperitoneal injection. For imaging studies, mice were anesthetized by isoflurane inhalation and injected with D-luciferin at 50 mg/Kg (Xenogen) intraperitoneally. Photonic emission was imaged with the In Vivo Imaging System (IVIS, Xenogen) with a collection time of 1 minute. Tumor bioluminescence was quantified by integrating the photonic flux (photons per second) through a region encircling each tumor as determined by the LIVING IMAGES software package (Xenogen).

Klf4 = Klf4 expression in small intestine of treated mice; format: in vivo
Source text: KLF4 regulation by NOTCH signaling in the gut. (a,b) Immunohistochemistry analysis of Klf4 expression in small intestine of mice treated with dexamethasone, DBZ or the combination of dexamethasone plus DBZ for 5 days. Scale bars represent 100 μm. (c) Real-time PCR analysis of Klf4 transcript levels in small intestine of mice treated with dexamethasone, DBZ or the combination of dexamethasone plus DBZ for 5 and 10 days. Gapdh levels were used as a reference control. Data are means±s.d. of three animals per group.
Quantitative real-time PCR. […] Total RNA from mouse tissues was extracted using Trizol reagent (Invitrogen). cDNA was generated with the ThermoScript RT-PCR system (Invitrogen) and analyzed by quantitative real-time PCR using SYBR Green RT-PCR Core Reagents kit and the 7300 Real-Time PCR System (Applied Biosystems). Relative expression levels were normalized with GAPDH expression used as a reference control.
Mouse toxicity model. To analyze the effects of GSI cotreatment with dexamethasone in healthy (non-leukemia-bearing) mice, we treated C57/Bl6 female animals (3 mice per group) daily with vehicle (DMSO), dexamethasone (15 mg/kg), DBZ (10 μmol/kg) and dexamethasone (15 mg/kg) plus DBZ (10 μmol/kg) by intraperitoneal injection for 5 and 10 days. […]

[1] = Pharmacokinetic analysis of DBZ in mouse plasma; format: in vivo; conditions: DBZ 2 μmol/kg tail vein; mice pre-treated with dexamethasone 15 mg/kg for 5 days vs vehicle
Protocol: Pharmacokinetic and drug metabolism studies. […] The concentration of DBZ in mouse plasma was determined using a standard curve (analyte peak area vs. concentration) generated with calibration standard pools.

[2] = DBZ metabolism by liver microsomes in vitro; format: in vitro ADME, mouse; conditions: in the presence of dexamethasone vs vehicle, 37° C.
Protocol: To analyze the effects of dexamethasone in the hepatic metabolism of DBZ, mouse liver microsomes (Xenotech) were incubated with DBZ or dexamethasone plus DBZ at 37° C. and DBZ concentrations were analyzed by LC/MS/MS mass spectrometry in samples taken at serial timepoints using a standard curve prepared in incubation buffer with heat inactivated liver microsomes.

[3] = system: CUTLL1 cells expressing luciferase
Protocol: Leukemia xenograft model. Before intravenous xenograft transplantation, recipient animals were irradiated with a total x-ray dose of 300 cGy. Two million CUTLL1 cells expressing luciferase were injected via the tail vein. After a 3-week window for tumor engraftment, mice with homogeneous tumor burdens were segregated into treatment groups (8 animals per group) and treated daily with vehicle (DMSO), dexamethasone (15 mg/kg), DBZ (10 μmol/kg) or dexamethasone (15 mg/kg) plus DBZ (10 μmol/kg) by intraperitoneal injection for 14 days. Disease progression/response was evaluated weekly using bioimaging as described above by integrating the photonic flux (photons per second) through a region around each mouse. Animals were followed up for up to 10 weeks. At the end of the observation period, single cell suspensions from the spleen of surviving animals were analyzed for the presence of leukemic cells by flow cytometry after staining with human anti-CD45-FITC (BD Biosciences).

[4] = mouse, in vivo
[5] = Mouse toxicity model (histology, immunohistochemistry, flow cytometry); conditions: 5 days of treatment

## C[C@H](NC(=O)Cc1cc(F)cc(F)c1)C(=O)N[C@H]1N=C(c2ccccc2)c2ccccc2N(C)C1=O [CompE]
CUTLL1 cells; CUTLL1, 72 hours
  cell response to CompE alone (cell cycle, apoptosis): modest cytostatic response characterized by G1 cell cycle arrest with little or no apoptosis
KOPTK1 cells
  cell response to CompE treatment alone: G1 cell cycle arrest
TALL1 cells
  cell response to CompE treatment alone: G1 cell cycle arrest
PARP cleavage; CUTLL1
  PARP cleavage (Western blot): no significant increase in PARP cleavage
NOTCH1 signaling
  NOTCH1 signaling: effectively blocks NOTCH1 signaling

## C[C@H](NC(=O)Cc1cc(F)cc(F)c1)C(=O)NC1C(=O)N(C)c2ccccc2-c2ccccc21 (stereo partly drawn) [DBZ, (2S)-2-[2-(3,5-difluorophenyl)-acetylamino]-N-(5-methyl-6-oxo-6,7-dihydro-5H-dibenzo[b,d]azepin-7-yl)-propionamide]
CUTLL1 T-ALL xenografts
  tumor growth / tumor burden by bioimaging: moderate delay in tumor growth
Klf4; 5 and 10 days
  Klf4 expression by RT-PCR: gradual increase of Klf4 expression
Klf4; 5 days
  KLF4 expression by immunohistochemistry: marked increased in KLF4 staining
[1]
  clearance of DBZ in vivo: reduced the clearance of DBZ
[2]
  DBZ metabolism by liver microsomes: decrease in DBZ metabolism
[3]; daily i.p. for 14 days
  toxicity in leukemia-bearing mice (mortality, weight loss): accelerated mortality associated with weight loss due to GSI toxicity
[3]; end of the observation period (10 weeks), vs. controls
  survival: inferior outcome
[4]
  histopathology of the gut after 5 days: moderate secretory metaplasia with increased number of goblet cells
  intestinal proliferation (Ki67 staining): marked reduction in proliferation
  spleen histology / cellularity: disappearance of the marginal zone in the white pulp
  thymus histology / cellularity: thymic atrophy with loss of the lymphoid cells from the cortex

## C[C@@H]1C[C@H]2[C@@H]3CCC4=CC(=O)C=C[C@]4(C)[C@@]3(F)[C@@H](O)C[C@]2(C)[C@@]1(O)C(=O)CO [dexamethasone]
CUTLL1 cells; Homo sapiens, CUTLL1 cells, 72 hours, dexamethasone in the presence of CompE (100 nM)
  IC50: 77 nM
[5]
  spleen histology / cellularity: moderate atrophy of the white pulp with preservation of the marginal zone and disorganization of the red pulp
  thymus histology / cellularity: thymic atrophy with loss of the lymphoid cells from the cortex
[5]; small intestine, H&E and PAS
  histopathology of the gut after 5 days: no histopathological changes in the gut

## COc1cc([C@@H]2c3cc4c(cc3[C@@H](O[C@@H]3O[C@@H]5CO[C@@H](C)O[C@H]5[C@H](O)[C@H]3O)[C@H]3COC(=O)[C@H]23)OCO4)cc(OC)c1O [etoposide]
CUTLL1 cells
  effect of γ-secretase inhibition on the apoptotic response triggered by the drug: did not influence the apoptotic responses

## CN(Cc1cnc2nc(N)nc(N)c2n1)c1ccc(C(=O)N[C@@H](CCC(=O)O)C(=O)O)cc1 [methotrexate]
CUTLL1 cells
  effect of γ-secretase inhibition on the apoptotic response triggered by the drug: did not influence the apoptotic responses

## CC[C@]1(O)C[C@H]2CN(CCc3c([nH]c4ccccc34)[C@@](C(=O)OC)(c3cc4c(cc3OC)N(C=O)[C@H]3[C@@](O)(C(=O)OC)[C@H](OC(C)=O)[C@]5(CC)C=CCN6CC[C@]43[C@@H]65)C2)C1 [vincristine]
CUTLL1 cells
  effect of γ-secretase inhibition on the apoptotic response triggered by the drug: did not influence the apoptotic responses

## Z-VAD
PARP cleavage; CUTLL1, Western blot and annexin V-PI staining
  effect on PARP cleavage and apoptosis triggered by CompE plus dexamethasone: reversed the induction of PARP cleavage and apoptosis

B1: L-asparaginase: antineoplastic drug from Roche; inhibition of protein biosynthesis (protein, UniProt P00805 23-348, looked up)
L-asparaginase 2: LPNITILATGGTIAGGGDSATKSNYTVGKVGVENLVNAVPQLKDIANVKGEQVVNIGSQDMNDNVWLTLAKKINTDCDKTDGFVITHGTDTMEETAYFLDLTVKCDKPVVMVGAMRPSTSMSADGPFNLYNAVVTAADKASANRGVLVVMNDTVLDGRDVTKTNTTDVATFKSVNYGPLGYIHNGKIDYQRTPARKHTSDTPFDVSKLNELPKVGIVYNYANASDLPAKALVDAGYDGIVSAGVGNGNLYKSVFDTLATAAKTGTAVVRSSRVPTGATTQDAEVDDAKYGFVASGTLNPQKARVLLQLALTQTKDPQQIQQIFNQY
CUTLL1 cells
  effect of γ-secretase inhibition on the apoptotic response triggered by the drug: did not influence the apoptotic responses
